The values that follow come from patent US20120184493A1, “DERMAL FORMULATIONS OF DP2 RECEPTOR ANTAGONISTS” (PANMIRA PHARMACEEUTICALS, LLC, priority 2009, published 2012).

Test [1] concerns the target T1, human DP2 receptor (Homo sapiens, UniProt Q9Y5Y4).
T1 construct: expressed in transfected cells
T1 sequence (Q9Y5Y4 1-395): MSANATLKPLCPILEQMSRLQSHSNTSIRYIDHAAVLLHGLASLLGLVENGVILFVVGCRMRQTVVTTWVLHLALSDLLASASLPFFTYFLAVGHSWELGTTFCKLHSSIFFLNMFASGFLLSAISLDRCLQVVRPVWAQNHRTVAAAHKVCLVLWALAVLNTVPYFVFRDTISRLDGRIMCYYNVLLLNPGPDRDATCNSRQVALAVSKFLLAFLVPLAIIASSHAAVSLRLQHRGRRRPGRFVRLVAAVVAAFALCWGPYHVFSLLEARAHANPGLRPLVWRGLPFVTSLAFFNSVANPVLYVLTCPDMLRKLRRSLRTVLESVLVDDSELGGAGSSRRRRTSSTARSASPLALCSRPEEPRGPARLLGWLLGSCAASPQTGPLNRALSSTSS
Briefly: DP2/CRTH2 radioligand binding assay using [3H]PGD2. To be noted: membranes of HEK293 cells expressing recombinant human DP2, 1 nM [3H]PGD2; read-out: hDP2. As to the method:
The ability of a compound to bind to the human DP2 receptor is assessed via a radioligand binding assay using [^3H]PGD2. HEK293 cells stably expressing recombinant human DP2 are resuspended in 10 mM Hepes, 7.4 containing 1 mM DTT, lysed and centrifuged at 75,000×g to pellet the membranes. The membranes are resuspended in 10 mM Hepes, 7.4 containing 1 mM DTT and 10% glycerol to approximately 5 mg protein/ml. Membranes (2-10 μg protein/well) are incubated in 96-well plates with 1 nM [^3H]PGD2 and test compound in Assay Buffer (50 mM Hepes, 10 mM MnCl2, 1 mM EDTA, plus or minus 0.2% human serum albumin, pH 7.4) for 60 minutes at room temperature. The reactions are terminated by rapid filtration through Whatman GF/C glass fibre filter plates. The filter plates were pre-soaked in 0.33% polythylenimine for 30 minutes at room temperature then washed in Wash Buffer (50 mM Hepes, 0.5 M NaCl pH 7.4) prior to harvesting. After harvesting, the filter plates are washed 3 times with 1 ml cold Wash Buffer then dried. Scintillant is then added to the plates and the radioactivity retained on the filters is determined on a Packard TopCount (Perkin Elmer). Specific binding is determined as total radioactive binding minus non-specific binding in the presence of 10 μM PGD2. IC50s were determined using GraphPad prism analysis of drug titration curves.

Test [2] addresses T2, human DP1 receptor (Homo sapiens, UniProt Q13258).
T2 construct: tissue Biological Specialty Corporation; host or cells: human platelets, membrane preparation
T2 sequence (Q13258 1-359): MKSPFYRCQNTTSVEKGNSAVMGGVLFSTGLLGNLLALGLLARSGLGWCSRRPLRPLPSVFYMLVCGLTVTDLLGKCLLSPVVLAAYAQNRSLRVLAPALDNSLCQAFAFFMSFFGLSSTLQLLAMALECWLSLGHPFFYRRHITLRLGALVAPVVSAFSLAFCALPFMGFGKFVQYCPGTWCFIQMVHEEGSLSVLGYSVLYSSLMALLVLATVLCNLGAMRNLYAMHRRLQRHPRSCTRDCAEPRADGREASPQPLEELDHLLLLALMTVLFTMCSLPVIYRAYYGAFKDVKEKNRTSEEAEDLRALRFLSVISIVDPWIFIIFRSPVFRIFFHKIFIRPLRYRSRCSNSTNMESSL
Kind of test: DP1 radioligand membrane binding assay using [3H]BWA868C. To be noted: human platelet membranes, 2 nM [3H]BWA868C; read-out: hDP1. Here is the method: The ability of a compound to bind to the human DP1 receptor was evaluated via a radioligand membrane binding assay using the DP1 selective synthetic ligand [^3H]BWA868C. Packed human platelets (Biological Specialty Corporation), were resuspended in 6 volumes of Hepes/HBSS buffer (10 mM Hepes, 1 mM DTT in Hanks Balanced Salt Solution (HBSS)), lysed and centrifuged at 75,000×g to pellet the membranes. Membranes were resuspended in Hepes/HBSS buffer to approximately 12 mg protein/ml. Membranes (20 μg protein/well) are incubated in 96-well plates with 2 nM [^3H]BWA868C and test compound in Assay Buffer (50 mM Hepes, 10 mM MnCl2, 1 mM EDTA, plus or minus 0.2% human serum albumin, pH 7.4) for 60 minutes at room temperature. The reactions are terminated by rapid filtration through Whatman GF/C glass fibre filter plates. The filter plates were pre-soaked in 0.33% polethylenimine for 30 minutes at room temperature then washed in Wash Buffer (50 mM Hepes, 0.5 M NaCl pH 7.4) prior to harvesting. After harvesting, the filter plates are washed 3 times with 1 ml cold Wash Buffer then dried. Scintillant is then added to the plates and the radioactivity retained on the filters is determined on a Packard TopCount (Perkin Elmer). Specific binding is determined as total radioactive binding minus non-specific binding in the presence of 10 μM BW A868C. IC50s were determined using GraphPad prism analysis of drug titration curves.

Some results are limits rather than exact numbers.

`CCN(Cc1cc(C(F)(F)F)ccc1-c1cncc(CC(=O)O)c1)C(=O)OCc1ccccc1` [(5-{2-[(N-benzyloxycarbonyl-N-ethyl-amino)-methyl]-4-trifluoromethyl-phenyl}-pyridin-3-yl)-acetic acid]: the IC50 in test [1] was < 300 nM; in test [2], > 1000 nM.
As to `CCOc1ccc(-c2ccc(-c3cc(CC(=O)O)ccc3OC)c(CN(CC)C(=O)C3CC3)c2)cn1` [[2′-[(N-cyclopropanecarbonyl-N-ethyl-amino)-methyl]-4′-(6-ethoxy-pyridin-3-yl)-6-methoxy-biphenyl-3-yl]-acetic acid], the IC50 in test [2] is > 1000 nM.
For the compound `COc1ccc(CC(=O)O)cc1Oc1ccc(NC(=O)C(C)(C)C)cc1CSC(C)(C)C` [{3-[2-tert-Butylsulfanylmethyl-4-(2,2-dimethyl-propionylamino)-phenoxy]-4-methoxy-phenyl}-acetic acid], the IC50 in test [1] was < 300 nM; in test [2], > 1000 nM.
For `CN(C1CCc2c(c3ncccc3n2CC(=O)O)C1)S(=O)(=O)c1ccc(F)cc1` (stereo not shown) [{8-[(4-fluoro-benzenesulfonyl)-methyl-amino]-6,7,8,9-tetrahydro-pyrido[3,2-b]indol-5-yl}-acetic acid] the same measures were < 300 nM and > 1000 nM.
